From patent publication US11760889B2, “Unsaturated fatty alcohol derivatives from natural oil metathesis” (priority 2012, dated 2023)

How the values were obtained:
[1] = Anionic emulsifier: emulsion stability testing of EW concentrate (modified ASTM E1116-98)
Procedure: Turbidity changes are noted and recorded.
A Mohr pipette is used to feed EW concentrate to each cylinder. Cylinders are stoppered and inverted ten times, then allowed to stand for 0.5, 1, and 24 h while recording stability at each time as type and % separation.
Spontaneity is recorded according to the following criteria: (1) poor: very thin emulsion cloud with major separation of oil droplets; (2) fair: thin emulsion cloud with minor separation of oil droplets; (3) good: thin emulsion cloud reaches the bottom of the cylinder without separation of any type; (4) excellent: thick emulsion cloud reaches the bottom of the cylinder without separation of any type.

[2] = Water-soluble herbicide formulation testing (standard dilution test, emulsion stability); format: physicochemical; design: key to Emulsion stability, mL separation, 24 h: Tr = trace; conditions: 342 ppm water;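 also: diluted in a 50 mL Nessler cylinder held at 30 °C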
Procedure: Surfactant candidates for water soluble herbicide applications are examined as a replacement for the anionic, nonionic, or anionic/nonionic blend portion and compared to a known industry adjuvant standard for use in paraquat, a water soluble herbicide concentrate formulation. A standard dilution test is conducted whereby the concentrates are diluted in water to determine if solubility is complete.
The cylinder is stoppered and inverted ten times. Solubility is recorded as complete or incomplete. Cylinders are allowed to stand and the amount (in mL) and type of separation are recorded after 30 min., 1 h, 2 h, and 24 h. Results of the solubility testing appear in Table 3 below.
An eight to ten mole alkyl phenol ethoxylate surfactant (0.7 g) is added and vigorously mixed for 30 s. Test sample (0.7 g) is added and mixing resumes for 30 s.
Test sample (0.7 g) is added and vigorously mixed for 30 s. Sodium linear alkylbenzene sulfonate (“NaLAS,” 0.7 g) is added and mixing resumes for 30 s.

[3] = Surfactant phase behavior study (cross-polarized microscopy); format: physicochemical; conditions: room temperature (20-22° C.)
Procedure: Phase behavior is observed using an Olympus BH-2 cross-polarized microscope at 100-400× and room temperature (20° C. to 22° C.). The inventive monounsaturated sulfates and ethoxylate sulfates are compared with their saturated analogs, and in some cases, commercial surfactants.
Samples are prepared by diluting the most concentrated product gradually with deionized water. When the surfactant concentration approaches a phase transition, the concentration is varied at 2-4% intervals to estimate the phase boundary. The actives level reported in Table 15 for each phase boundary is within ±5% of the true boundary.
Samples are loaded between a microscope slide and cover glass and are allowed to equilibrate before observation. Microscopic texture is analyzed and used to determine the phase. For some samples, an AR 2000 rheometer (TA Instruments) is used to measure viscosity at 25° C. to further verify phase behavior.

[4] = Adjuvant (anionic/nonionic) test sample

| Molecule | % Separation, 1 h ([1]; 34 ppm water) | % Separation, 24 h ([1]; 34 ppm water) | % Separation, 1 h ([1]; 1000 ppm water) | % Separation, 24 h ([1]; 1000 ppm water) | Emulsion stability, mL separation, 1 h [2, 4] | Emulsion stability, mL separation, 24 h [2, 4] | Emulsion stability, mL separation, 1 h ([2]; Anionic test sample) | Emulsion stability, mL separation, 24 h ([2]; Anionic test sample) | Emulsion stability, mL separation, 1 h ([2]; Nonionic test sample) | Emulsion stability, mL separation, 24 h ([2]; Nonionic test sample) | Estimated Phase Region: Hexagonal [3] | Estimated Phase Region: Lamellar [3] | Estimated Phase Region: Solid/gum/paste [3] | Estimated Phase Region: Unknown [3] | Estimated Phase Region: Isotropic Clear [3] |
| --- | --- | --- | --- | --- | --- | --- | --- | --- | --- | --- | --- | --- | --- | --- | --- |
| 1 Mole Ethoxylated C10 Alcohol, Ammonium Sulfate [A10-5] | 3.8% | 4.3% | 2.8% | 3% |  |  |  |  |  |  |  |  |  |  |  |
| 1 Mole Ethoxylated C10 Alcohol, Sodium Sulfate [A10-6] | 4% | 4.9% | 3% | 3.2% | 0 mL | 0 mL | 0 mL | 0 mL | 0 mL | Tr |  |  |  |  |  |
| 1 Mole Ethoxylated C12 Alcohol, Ammonium Sulfate [A12-5] | 4% | 4.1% | 3% | 3.5% |  |  |  |  |  |  |  |  |  |  |  |
| 1 Mole Ethoxylated C12 Alcohol, Sodium Sulfate [A12-6] | 4.3% | 5.2% | 2.7% | 3.7% | 0 mL | 0 mL | 0 mL | 0 mL | 0 mL | 0 mL |  |  |  |  |  |
| 3 Mole Ethoxylated C10 Alcohol, Ammonium Sulfate [A10-8] | 3.5% | 3.9% | 3.5% | 3.5% |  |  |  |  |  |  |  |  |  |  |  |
| 3 Mole Ethoxylated C10 Alcohol, Sodium Sulfate [A10-9] | 4% | 3.6% | 3.5% | 3.9% | 0 mL | 0 mL | 0 mL | 0 mL | 0 mL | 0 mL |  |  |  |  |  |
| 3 Mole Ethoxylated C12 Alcohol, Ammonium Sulfate [A12-8] | 3% | 4% | 3.7% | 3.9% |  |  |  |  |  |  |  |  |  |  |  |
| 5 Mole Ethoxylated C10 Alcohol, Ammonium Sulfate [A10-11] | 3.9% | 5% | 2.5% | 3.1% |  |  |  |  |  |  |  |  |  |  |  |
| 5 Mole Ethoxylated C10 Alcohol, Sodium Sulfate [A10-12] | 3.6% | 4% | 3.4% | 4.3% | 0 mL | 0 mL | 0 mL | 0 mL | 0 mL | 0 mL |  |  |  |  |  |
| 5 Mole Ethoxylated C12 Alcohol, Ammonium Sulfate [A12-11] | 3.6% | 3.8% | 2.1% | 3% |  |  |  |  |  |  |  |  |  |  |  |
| 5 Mole Ethoxylated C12 Alcohol, Sodium Sulfate [A12-12] | 4.1% | 4.5% | 3% | 3.8% | 0 mL | 0 mL | 0 mL | 0 mL | 0 mL | 0 mL |  |  |  |  |  |
| 7 Mole Ethoxylated C10 Alcohol, Ammonium Sulfate [A10-14] | 3.5% | 4% | 3.5% | 4.1% |  |  |  |  |  |  |  |  |  |  |  |
| 7 Mole Ethoxylated C10 Alcohol, Sodium Sulfate [A10-15] | 3.5% | 3.9% | 3% | 4.1% | 0 mL | 0 mL | 0 mL | 0 mL | 0 mL | 0 mL |  |  |  |  |  |
| 7 Mole Ethoxylated C12 Alcohol, Ammonium Sulfate [A12-14] | 3.9% | 4.1% | 2.8% | 3.5% |  |  |  |  |  |  |  |  |  |  |  |
| 7 Mole Ethoxylated C12 Alcohol, Sodium Sulfate [A12-15] | 3.5% | 3.9% | 3.5% | 4% | 0 mL | 0 mL | 0 mL | 0 mL | 0 mL | 0 mL |  |  |  |  |  |
| 15 Mole Ethoxylated C10 Alcohol, Ammonium Sulfate [A10-17] | 1.5% | 2.2% | 1.5% | 2% |  |  |  |  |  |  |  |  |  |  |  |
| 15 Mole Ethoxylated C10 Alcohol, Sodium Sulfate [A10-18] | 2.5% | 2.8% | 4% | 4% | 0 mL | 0 mL | 0 mL | 0 mL | 0 mL | 0 mL |  |  |  |  |  |
| 15 Mole Ethoxylated C12 Alcohol, Ammonium Sulfate [A12-17] | 4% | 3.8% | 3.5% | 4.2% |  |  |  |  |  |  |  |  |  |  |  |
| 15 Mole Ethoxylated C12 Alcohol, Sodium Sulfate [A12-18] | 3% | 4.3% | 2.5% | 3.9% | 0 mL | 0 mL | 0 mL | 0 mL | 0 mL | 0 mL |  |  |  |  |  |
| CCCCCCCCCCOS(=O)(=O)O.N [sat. analog of A10-2, reference compound] |  |  |  |  |  |  |  |  |  |  | 42-64 % actives | 64-80 % actives | 80-100 % actives | 0-42 % actives |  |
| CCCCCCCCCCOS(=O)(=O)[O-].[Na+] [sat. analog of A10-3, reference compound] |  |  |  |  |  |  |  |  |  |  | 41-59 % actives |  | 59-100 % actives |  | 0-41 % actives |
| CCCCCCCCCCCCOS(=O)(=O)O.N [sat. analog of A12-2, reference compound] |  |  |  |  |  |  |  |  |  |  | 31-63 % actives | 63-74 % actives | 74-100 % actives |  | 0-31 % actives |
